Entries after “also recorded” stand apart in the source; their conditions may differ. Where two headings read alike, the source gives them in different places.
Key:
HuCCT1 CCA cells [1] = assay: 24-hour transwell cell migration assay, HuCCT1; format: cell-based, human; conditions: 10 μM compound 14c, versus DMSO
Description: (§1) We used 5×10^4 HuCCT1 and 1×10^5 RBE cells in the migration assay.
(§2) Human cholangiocarcinoma cell lines, HuCCT1, RBE, and SSP25 were purchased from the RIKEN cell line bank. They were cultured in RPMI-1640 medium supplemented with 10% (v/v) fetal bovine serum, 2 mM of L-glutamine, and penicillin/streptomycin. A BDE-Neu cell line and BDE-Neu CL24 were cultured in Dulbecco's modified Eagle's medium supplemented with 10% (v/v) fetal bovine serum, 2 mM of L-glutamine, and penicillin/streptomycin. Plasmids pLKO.1-shRNA-luciferase (shLuc) and pLKO.1-shRNA-ASPH (shASPH) were purchased from Sigma-Aldrich (St. Louis, Mo.).
(§3) The cell migration assay was performed using transwell chambers (pore size: 8 μm, Corning 3422) coated with Matrigel® (Corning 354480). The cell invasion assay was performed by using transwell chambers coated with Matrigel® (Corning 354480) as previously described. In brief, 10^5 cells in 200 μl of serum-free medium were plated in the top chamber and 600 μl of culture medium containing 10% fetal bovine serum was preparedapplied in the lower chamber to stimulate cell for migration. Cells were incubated for 24 hours, fixed with methanol, stained with 10% Giemsa solution, and counted using ImageJ software (National Institute of Health, USA). The results of invasion assay were analyzed as described in the migration assay.

[2] = body weights of experimental rats as gross indicator of drug toxicity; format: in vivo; conditions: rat, compound 14c 10 mg/kg, measured at the indicated experimental time points, n=8-10
Description: There was no difference between the control and experimental groups.
The intrahepatic CCA metastatic models weremetastasis model was established with BDE-Neu-CL24 cells. Rats were anesthetized with isoflurane, the abdomen was opened, and the liver inoculated with 3×10^6 BDE-Neu-CL24 cells. The bile duct was then ligated following administration of 0.03 mg/kg of buprenorphine prior to surgery, and four hours after surgery, and the following morning for analgesia as needed. The rats were monitored daily and evaluated for weight change, body condition, and signs of ascites. The oral formulated compound 14c were prepared in capsules at a dose of 10 mg/kg and administered with an oral syringe. […] All lung tissues were immersed in Bouin's fixative solution and the metastatic nodules on the surface of the lungs were counted.
(§4) To evaluate whether compound 14c suppresses CCA metastasis in vivo, we performed experiments in a rat intrahepatic syngeneic CCA model by ligating the bile duct and inoculating rat BDE-neu-CL24 cells into the liver. We first determined that compound 14c inhibited BDE-neu-CL24 cells in vitro (FIG. 4A). […] The body weights were measured as a gross indicator of drug toxicity and were not affected compared to vehicle control (FIG. 7). The metastatic spread to the lung surface was determined (FIG. 4D).

HuCCT1 CCA cells [3] = assay: cell invasion assay, matrix-coated Boyden chamber transwell, HuCCT1; format: cell-based; conditions: Homo sapiens, HuCCT-1, 10 μM compound 14c, versus DMSO, read-out: inhibition of cell invasion capacity
Description: as §2, §3

ASPH = biological target: T1, ASPH (Homo sapiens, UniProt Q12797); assay: ASPH enzymatic (catalytic) activity; format: biochemical
T1 sequence (Q12797 1-758): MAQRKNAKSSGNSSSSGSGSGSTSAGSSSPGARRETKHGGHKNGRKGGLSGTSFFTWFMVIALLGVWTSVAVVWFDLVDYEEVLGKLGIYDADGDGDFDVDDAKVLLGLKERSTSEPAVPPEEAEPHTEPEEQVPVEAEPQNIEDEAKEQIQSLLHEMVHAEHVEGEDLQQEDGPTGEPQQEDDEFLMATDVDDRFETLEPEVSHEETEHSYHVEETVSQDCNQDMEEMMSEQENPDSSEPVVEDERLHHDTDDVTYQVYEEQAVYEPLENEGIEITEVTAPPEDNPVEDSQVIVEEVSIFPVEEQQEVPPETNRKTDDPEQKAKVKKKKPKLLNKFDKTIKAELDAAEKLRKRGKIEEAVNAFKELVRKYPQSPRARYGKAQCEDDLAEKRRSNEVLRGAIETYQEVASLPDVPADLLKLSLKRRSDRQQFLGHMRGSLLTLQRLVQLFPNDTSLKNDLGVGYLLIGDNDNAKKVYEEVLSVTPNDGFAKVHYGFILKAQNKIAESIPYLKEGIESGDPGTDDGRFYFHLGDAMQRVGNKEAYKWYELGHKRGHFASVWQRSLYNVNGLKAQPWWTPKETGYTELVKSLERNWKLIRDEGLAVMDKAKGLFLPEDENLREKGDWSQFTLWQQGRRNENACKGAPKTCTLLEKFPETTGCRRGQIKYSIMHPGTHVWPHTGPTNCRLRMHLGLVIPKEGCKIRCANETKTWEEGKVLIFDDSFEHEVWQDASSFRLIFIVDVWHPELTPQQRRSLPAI
Text: FIGS. 5A-5B show a scheme for measuring ASPH catalytic activity.

RBE CCA cells [4] = assay: 24-hour transwell cell migration assay, RBE; format: cell-based, human
Description: as §1, §2, §3

BDE-neu-CL24 cells = assay: cell migration assay, rat BDE-neu CL24 CCA cells; format: cell-based; conditions: 10 μM, versus DMSO
Description: as §2, §3

[5] = system: intrahepatic CCA tumors from BDE-Neu-CL24 cells; assay: rat intrahepatic syngeneic CCA metastasis model; format: in vivo; conditions: for CCA metastatic spread to the lung (metastatic nodules): rat, 10 mg/kg oral capsule daily for 18 days, versus control capsule, p=0.041, 10 mg/kg
Description: Rats received 10 mg/kg (body weight) of the ASPH inhibitor daily for 18 days and sacrificed at day 21 post-surgery
The statistical analysis was performed using the Mann-Whitney U test. *, p<0.05 versus control.
The compound 55 (25 mg/kg) was given by i.p injection, and 10 mg/kg of compound 14c via i.p. injection 3 times per week. N=8-10 in each group.
The intrahepatic CCA metastatic models weremetastasis model was established with BDE-Neu-CL24 cells. Rats were anesthetized with isoflurane, the abdomen was opened, and the liver inoculated with 3×10^6 BDE-Neu-CL24 cells. The bile duct was then ligated following administration of 0.03 mg/kg of buprenorphine prior to surgery, and four hours after surgery, and the following morning for analgesia as needed. The rats were monitored daily and evaluated for weight change, body condition, and signs of ascites. The oral formulated compound 14c were prepared in capsules at a dose of 10 mg/kg and administered with an oral syringe. The rats were euthanized […] with Isoflurane and cervical dislocation. Tumors were dissected away from the adjacent liver and weighed. All lung tissues were immersed in Bouin's fixative solution and the metastatic nodules on the surface of the lungs were counted.
Statistical analyses of two groups were done by Student's t-test unless otherwise stated. Equality of variance was examined using F-test. Mann-Whitney U test was used to assess the significance between the two groups with respect to the numbers of metastatic nodules in the rat lung by using the software “R”.
To evaluate whether compound 14c suppresses CCA metastasis in vivo, we performed experiments in a rat intrahepatic syngeneic CCA model by ligating the bile duct and inoculating rat BDE-neu-CL24 cells into the liver. We first determined that compound 14c inhibited BDE-neu-CL24 cells in vitro (FIG. 4A). The intrahepatic rat model was established and the rats challenged with a control capsule or a capsule containing compound 14c (10 mg/kg, FIG. 4B) orally and daily for 18 days, and animals were sacrificed on day 21 (FIG. 4C). The body weights were measured as a gross indicator of drug toxicity and were not affected compared to vehicle control (FIG. 7). The metastatic spread to the lung surface was determined (FIG. 4D).

MMP2 = assay: immunohistochemistry of primary intrahepatic tumor, MMP2; format: in vivo; conditions: rat, 10 mg/kg oral daily
Description: (§5) The immunohistochemistry assay was performed as known in the art. Tissue slides were de-paraffined, re-hydrated, and then subjected to antigen-retrieval using the antigen unmasking solution (Vector Inc., H3300). The endogenous peroxidase activity was quenched with 3% H2O2 prepared in methanol. Tissues slides were further blocked with a 5% milk and BSA solution prepared in 1×PBST for 1 hour. The slides were incubated with ASPH, MMP2, and MMP14 antibodies prepared in with 3% BSA in PBS) overnight at 4° C. overnight. The slides were washed with 0.05% TBST three times and then incubated with 1:200 dilution of biotinylated secondary antibody (Vector Laboratories) and the ABC solution (Vector Laboratories) at 20° C. The slides were incubated with DAB substrate to detect positive staining. […] Images were taken using a Nikon microscope and analyzed with Image Pro Plus.
as §4

water solubility = format: physicochemical
RBE CCA cells [6] = assay: cell invasion assay, matrix-coated Boyden chamber transwell, RBE; format: cell-based; conditions: Homo sapiens, 10 μM compound 14c, versus DMSO, read-out: inhibition of cell invasion capacity
Description: as §2, §3

MMP14 = assay: immunohistochemistry of primary intrahepatic tumor, MMP14; format: in vivo; conditions: rat, 10 mg/kg oral daily
Description: as §5, §4

[7] = listed as third generation ASPH inhibitor

Row | Structure (SMILES) | reduction of cell migration (HuCCT1 CCA cells [1]) [%] | body weights compared to vehicle control [2] | inhibition at 10 µM (HuCCT1 CCA cells [3]) [%] | inhibitory effects on ASPH (enzymatic) activity compared to previous generations of ASPH SMIs (ASPH) | inhibitory effects on ASPH (enzymatic) activity compared to previous generations of ASPH SMIs (ASPH; [7]) | reduction of cell migration (RBE CCA cells [4]; 10 μM compound 14c, 24-hour transwell, versus DMSO) [%] | reduction of RBE CCA cell migration (RBE CCA cells [4]; comparison of ASPH inhibitor generations, concentration not stated) | inhibition of BDE-neu-CL24 cells in vitro (cell migration, FIG. 4A) (BDE-neu-CL24 cells) | effects on CCA progression as compared to compound 55 (FIG. 6A, weight of CCA tumors) ([5]; rat CCA model, compound 14c 10 mg/kg i.p. 3 times per week versus compound 55 25 mg/kg i.p.) | CCA metastatic spread to the lung (metastatic nodules) [5] | CCA metastatic spread to the lung (metastatic nodules) [5, 7] | MMP2 protein expression in primary intrahepatic tumor (MMP2) | water solubility compared to previous generations of ASPH SMIs (water solubility) | water solubility compared to previous generations of ASPH SMIs (water solubility; [7]) | inhibition at 10 µM (RBE CCA cells [6]) [%] | MMP14 protein expression in primary intrahepatic tumor (MMP14) | anti-tumor effects on metastatic spread to the lung ([5]; rat model, 25 mg/kg, daily) | anti-tumor effects on primary tumor growth ([5]; rat model, 25 mg/kg, daily)
1 | COC(=O)c1ccc(C2OC(N)=C(OS(=O)(=O)Cc3ccccc3)C2=O)cc1 (stereo not drawn) [compound 14c] | 50 | not affected; also recorded: no difference | 60 | improved | increased potency | 70 | approximately 70% | inhibited | improved effects | substantially decreased | suppressed | significantly down-regulated | improved water solubility | more water soluble | 83 | significantly down-regulated |  | 
2 | NC1=C(OS(=O)(=O)Cc2ccccc2)C(=O)C(c2ccc(C(F)(F)F)cc2)O1 (stereo not drawn) [compound 55, 2-(4-trifluoromethylphenyl)-4-[[phenylmethylsulfonyl]oxy]-5-amino-3(2H)-furanone] |  |  |  |  |  |  |  |  |  |  |  |  |  |  |  |  | did not achieve satisfactory anti-tumor effects | did not achieve satisfactory anti-tumor effects
